Measured values as given in patent publication US11351222B2, “Di-sulfide containing cell penetrating peptides and methods of making and using thereof” (Ohio State Innovation Foundation, priority 2016, dated 2022).
Bridge positions count the residues as written; N and C are the ends. Square brackets hold non-standard residues; d marks the D form. Ends that are not written are not given here. BMB = 3,5-bis(mercaptomethyl)benzoic acid scaffold; 2Nal = N[C@@H](Cc1ccc2ccccc2c1)C(=O)O

Assays:
HeLa cells = assay: Flow cytometry cellular uptake of FITC-labeled peptides; type: cell-based; settings: for mean fluorescence intensity (MFI): 5 μM FITC-labeled peptide; for mean fluorescence intensity (MFI) / higher cell entry efficiency than cFΦR4: 2 h; for higher cell entry efficiency than cFΦR4: 5 μM
Description: HeLa cells were cultured in six-well plates (5×10^5 cells per well) for 24 h. On the day of experiment, the cells were incubated with 5 μM FITC-labeled peptide in clear DMEM with 1% FBS at 37° C. for 2 h. The cells were washed with DPBS, detached from plate with 0.25% trypsin, diluted into clear DMEM containing 10% FBS, pelleted at 250 g for 5 min, washed once with DPBS and resuspended in DPBS containing 1% bovine serum albumin, and analyzed on a BD LSR II flow cytometer. Data were analyzed with Flowjo software (Tree Star).
To monitor their cellular uptake, peptides 2 and 3 were labeled with fluorescein isothiocyanate (FITC) on the side chain of a C-terminal lysine. […] Thus, bicyclic peptides 2 and 3 entered HeLa cells with 72% and 36% higher efficiencies, respectively, than cFΦR4 (SEQ ID NO.:72).
Peptides 4 and 5 were labeled with FITC at the side chain of a lysine added to their C-termini and their cellular entry was assessed by flow cytometry. […] Briefly, in the presence of an anti-glutathione-S-transferase (GST) antibody labeled with a fluorescence donor (Tb) and streptavidin labeled with a fluorescence acceptor (d2), binding of GST-NEMO to a biotinylated IKKβ fragment (amino acids 701-745) (B. Gao, et al., Biochemistry 2014, 53, 677) results in a resonance energy transfer. Addition of a NEMO inhibitor blocks the NEMO-IKKβ interaction and reduces the HTRF signal. […] IKKβ contains a phenylalanine at the same position (Phe-734). […] Thus, the phenylalanine in peptide 4 likely plays dual roles of cellular entry and NEMO binding.

NEMO-IKKβ interaction = molecular target: T1, NEMO-IKKβ interaction (Homo sapiens, UniProt Q9Y6K9); assay: HTRF assay of the NEMO-IKKβ interaction; type: binding; settings: up to 100 μM peptide, 5 mM TCEP
T1 construct: transformed with a pGEX4T3-GST-NEMO(1-196) plasmid; made in house; host or cells: Escherichia coli BL21(DE3)

[1] = system: TNFα-induced activation of NF-κB in NF-κB reporter (Luc)-HEK293 cells; assay: NF-κB luciferase assay
Description: NF-κB reporter (Luc)-HEK293 cells were seeded in 96-well microplate in 45 μL of assay medium (DMEM, 10% FBS, and 1% penicillin/streptomycin, 1500 cells per well) and cultured overnight. Five μL of NEMO inhibitor in assay medium was added to cells and the cells were incubated for 2 h. Recombinant TNFα^3 in 5 μL of assay medium was added to the wells at the final concentration of 5 ng/mL. After 4 h of incubation, 55 μL of ONE-Step luciferase assay reagent was added to each well. Luminescence was measured after 10 min of incubation using a Tecan Infinite M1000 Pro microplate reader. Luciferase activities of TNFα unstimulated and stimulated cells were recorded as AU″ and AU^+, respectively. Luciferase activities of TNFα stimulated cells after incubating with different concentrations of NEMO inhibitors were recorded as AU^pep.
The ability of the bicyclic peptides to modulate the NEMO-IKK interaction inside the cell was assessed by monitoring the TNFα-induced activation of NF-κB.

mammalian cells = settings: previously reported; cited from earlier work

T1 sequence (Q9Y6K9 1-196): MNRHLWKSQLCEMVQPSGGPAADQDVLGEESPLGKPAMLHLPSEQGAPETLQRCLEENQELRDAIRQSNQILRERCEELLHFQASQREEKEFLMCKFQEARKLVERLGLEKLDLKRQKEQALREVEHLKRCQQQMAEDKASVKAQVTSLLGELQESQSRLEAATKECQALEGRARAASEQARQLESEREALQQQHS

In the case of “2: bicyclic model peptide with CPP motif and mock cargo SASAS on BMB scaffold (cyclo(RRRR[2Nal]FCSASASCK); linker 7-13 via BMB (inferred)) [Peptide 2]”, the “mean fluorescence intensity (MFI)” value (HeLa cells) is reported as 5180 and the “higher cell entry efficiency than cFΦR4” value (HeLa cells; relative to cFΦR4) is reported as 72%.
For “3: bicyclic model peptide with CPP motif and mock cargo SASAS on BMB scaffold (cyclo(SASASCF[2Nal]RRRRCK); linker 6-13 via BMB (inferred)) [Peptide 3]”, the “mean fluorescence intensity (MFI)” value (HeLa cells) was 4100 and the “higher cell entry efficiency than cFΦR4” value (HeLa cells; relative to cFΦR4) was 36%.
With “5: control, similar to peptide 4 but two Ala residues in place of the two Trp residues (RRRR[2Nal]FCALDASALQC; linker 7-16 via BMB; not fully specified (C-terminus, bridges)) [Peptide 5]” the “inhibition of the NEMO-IKKβ interaction” value (NEMO-IKKβ interaction) was “only minor inhibition”, the “MFI higher than that of cFΦR4” value (HeLa cells; FITC-labeled peptide, relative to cFΦR4) was 2 fold and the “effect on NF-κB signaling” value ([1]; at 20 μM) was “no significant effect”. For the same substance, the “inhibition of NF-κB signaling” value ([1]; highest concentration tested (40 μM)) was about 10%.
For “Cyclo(FΦRRRRQ) [cFΦR4, reference compound]”, the “mean fluorescence intensity (MFI)” value (HeLa cells) is listed as 3020 and the “cytosolic delivery efficiency (ratio of cytosolic over extracellular cargo concentration)” value (mammalian cells) is listed as 20%.
